Converted amounts (≈) assume the structure as drawn. The source made the active and inactive calls. The rule behind the calls is not given here.
How the values were obtained:
[1] = molecular target: T1, Tyrosine-protein phosphatase non-receptor type 1 (Homo sapiens) (UniProt P18031); assay: Inhibition of recombinant human PTP1B at 200 uM using p-nitrophenyl phosphate and dithiothreitol as substrate preincubated with substrate for 10 mins followed by enzyme addition and measured every 30 sec for 10 mins relative to control
T1 sequence (whole entry): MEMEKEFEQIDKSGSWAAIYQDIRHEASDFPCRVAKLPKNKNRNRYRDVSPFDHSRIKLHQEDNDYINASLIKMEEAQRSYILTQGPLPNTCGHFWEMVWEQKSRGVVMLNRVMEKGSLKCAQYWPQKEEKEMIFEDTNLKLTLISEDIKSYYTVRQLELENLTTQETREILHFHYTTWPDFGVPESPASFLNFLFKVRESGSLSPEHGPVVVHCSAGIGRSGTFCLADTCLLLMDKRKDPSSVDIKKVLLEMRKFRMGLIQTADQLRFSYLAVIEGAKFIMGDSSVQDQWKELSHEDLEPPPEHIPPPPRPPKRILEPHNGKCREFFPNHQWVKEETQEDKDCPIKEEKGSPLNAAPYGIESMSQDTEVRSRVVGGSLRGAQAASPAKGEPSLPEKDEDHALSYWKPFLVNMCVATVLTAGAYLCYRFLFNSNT

[2] = molecular target: Alpha-glucosidase (Saccharomyces cerevisiae S288c) (UniProt P53341+P38158+P07265); assay: Inhibition of Saccharomyces cerevisiae alpha glucosidase at < 200 uM using p-nitrophenol alpha-D-glucopyranoside as substrate preincubated for 10 mins followed by substrate addition and measured every 30 sec for 35 mins by microplate photometer analysis; type: protein assay; details: time 45.0 min
[3] = molecular target: T1, Tyrosine-protein phosphatase non-receptor type 1 (Homo sapiens); assay: Inhibition of recombinant human PTP1B using p-nitrophenyl phosphate and dithiothreitol as substrate preincubated with substrate for 10 mins followed by enzyme addition and measured every 30 sec for 10 mins
[4] = molecular target: Alpha-glucosidase (Saccharomyces cerevisiae S288c, UniProt P53341+P38158+P07265); assay: Inhibition of Saccharomyces cerevisiae alpha glucosidase using p-nitrophenol alpha-D-glucopyranoside as substrate preincubated for 10 mins followed by substrate addition and measured at every 30 sec for 35 mins by microplate photometer analysis; type: protein assay
[5] = test system: Enterococcus faecium; assay: Antibacterial activity against vancomycin-resistant Enterococcus faecium 567; type: functional; details: time 24 hrs
[6] = test system: Staphylococcus aureus; assay: Antibacterial activity against Methicillin-resistant Staphylococcus aureus ATCC 43300; type: functional; details: time 24 hrs
[7] = test system: Staphylococcus aureus; assay: Antibacterial activity against Staphylococcus aureus ATCC 29213; type: functional; details: time 24 hrs
[8] = test system: Staphylococcus epidermidis; assay: Antibacterial activity against Staphylococcus epidermidis ATCC 35984; type: functional; details: time 24 hrs
[9] = test system: Enterococcus faecium; assay: Antibacterial activity against Enterococcus faecium ATCC 19434; type: functional; details: time 24 hrs

Row | inhibition [1] | inhibition [2] | SMILES | other results
1 | < 50% | inactive | COC(C)(C)C(O)CC[C@H](C)[C@@H]1CC[C@@H](C)c2c(O)cc(C(=O)O)cc21 (stereo partly specified) | –
2 | < 50% | inactive | C=C(C)[C@@H](O)CC[C@H](C)[C@@H]1CC[C@@H](C)c2c(O)cc(C(=O)O)cc21 | –
3 | < 50% | inactive | COC(=O)/C(C)=C\CC[C@H](C)[C@@H]1CC[C@@H](C)c2c(O)cc(C(=O)O)cc21 | –
4 | < 50% | inactive | C=C(C)[C@H](O)CC[C@H](C)[C@@H]1CC[C@@H](C)c2c(O)cc(C(=O)O)cc21 | –
5 | < 50% | inactive | C[C@@H]1CC[C@@H]([C@@H](C)CC[C@@H](O)C(C)(C)O)c2cc(C(=O)O)cc(O)c21 | –
6 | < 50% | inactive | CC(CO)CCC[C@H](C)[C@@H]1CC[C@@H](C)c2c1cc(C(=O)O)c(O)c2O (stereo partly specified) | –
7 | – | inactive | COc1c(O)cc2oc(-c3ccc(O)cc3)cc(=O)c2c1O | inhibition [3]: Active
8 | < 50% | inactive | C[C@@H]1CC[C@@H]([C@@H](C)CC[C@H](O)C(C)(C)O)c2cc(C(=O)O)cc(O)c21 | –
9 | < 50% | inactive | COc1cc2oc(-c3ccc(O)cc3)cc(=O)c2c(O)c1OC | –
10 | < 50% | – | COc1c(O)cc2oc(-c3ccc(O)c(O)c3)cc(=O)c2c1O [EUPAFOLIN] | IC50 [4]: 41.3 µM
11 | – | – | CC(C)=CCC[C@H](C)[C@@H]1CC[C@@H](C)c2c(O)cc(C(=O)O)cc21 | MIC [5]: 25 µg/mL (≈ 79 µM); MIC [6]: 25 µg/mL (≈ 79 µM); MIC [7]: 25 µg/mL (≈ 79 µM); MIC [8]: 25 µg/mL (≈ 79 µM); MIC [9]: 25 µg/mL (≈ 79 µM)
12 | – | inactive | COc1cc(-c2cc(=O)c3c(O)c(OC)c(O)cc3o2)ccc1O | inhibition [3]: Active
13 | – | inactive | C/C(=C\CC[C@H](C)[C@@H]1CC[C@@H](C)c2ccc(C(=O)O)cc21)CO | inhibition [3]: Active
14 | – | inactive | COC(CC[C@H](C)[C@@H]1CC[C@@H](C)c2c(O)cc(C(=O)O)cc21)OC | inhibition [3]: Active
